# Values joined by “and” are separate entries in the source; they are usually repeats but may differ in a detail not shown here. Identical values can stand only once. Numbers after ± are expanded uncertainties.
# Test: activity coefficient (dimensionless); of the first substance listed, at infinite dilution; xn = mol fraction of the nth substance listed
# Conditions: Liquid, x1 = 0
# [1] = 348.15 K, Rayleigh distillation
# [2] = 273.35 K, relative headspace analysis
# [3] = 278.15 K, relative headspace analysis
# [4] = 288.15 K, relative headspace analysis
# [5] = 308.15 K, relative headspace analysis
structure (smiles),measurement,setting,value
"COCCOC [1,2-dimethoxyethane] + O",activity coefficient,"318.15 K, Chromatography",7.25 ± 0.49
same,activity coefficient,"328.15 K, non steady state GLC",9.12 and 8.81
same,activity coefficient,"338.15 K, non steady state GLC",11.2 and 11.1
same,activity coefficient,[1],12.2 ± 0.7
same,activity coefficient,"372.5 K, circulation still",14.9 ± 0.9
"C1COCO1 [1,3-dioxolane] + O",activity coefficient,[2],8.13 ± 0.49
same,activity coefficient,[3],8.48 ± 0.51
same,activity coefficient,[4],9.12 ± 0.55
same,activity coefficient,"298.15 K, relative headspace analysis",9.71 ± 0.58
same,activity coefficient,[5],10.2 ± 0.6
same,activity coefficient,"318.15 K, Chromatography",10.6 ± 0.7
same,activity coefficient,"328.15 K, Chromatography",10.9 ± 0.7
same,activity coefficient,"338.15 K, non steady state GLC",11 and 11.4
same,activity coefficient,[1],11.3 ± 0.7
same,activity coefficient,"372.55 K, circulation still",11.2 ± 0.7
"C1COCCO1 [1,4-dioxane] + O",activity coefficient,[2],3.53 ± 0.21
same,activity coefficient,[3],4 ± 0.24
same,activity coefficient,"288.15 K, headspace analysis",5.17 ± 0.31
same,activity coefficient,[4],4.75 ± 0.29
same,activity coefficient,"298.15 K, headspace analysis",5.88 ± 0.35
same,activity coefficient,"308.15 K, headspace analysis",6.7 ± 0.4
same,activity coefficient,[5],6.15 ± 0.37
same,activity coefficient,"318.15 K, relative headspace analysis",6.82 ± 0.41
same,activity coefficient,"328.15 K, non steady state GLC",7.76 ± 0.47
same,activity coefficient,"338.15 K, Chromatography",8.22 ± 0.56
same,activity coefficient,"338.15 K, non steady state GLC",8.27 ± 0.5
same,activity coefficient,"348.15 K, rayleigh distillation",8.43 ± 0.51
same,activity coefficient,"372.5 K, circulation still",10.3 ± 0.6
CCOCC [diethyl ether] + O,activity coefficient,"273.35 K, Chromatography",33.9 ± 2.3
same,activity coefficient,"278.15 K, Chromatography",41.2 ± 2.8
same,activity coefficient,"283.15 K, Chromatography",49.4 ± 3.4
same,activity coefficient,"288.15 K, Chromatography",58.5 ± 4
same,activity coefficient,"293.15 K, Chromatography",68.6 ± 4.7
same,activity coefficient,"298.15 K, Chromatography",77.1 ± 5.3
same,activity coefficient,"303.15 K, Chromatography",88.8 ± 6.1
same,activity coefficient,"308.15 K, Chromatography",98.8 ± 6.8
same,activity coefficient,"318.15 K, Chromatography",121 ± 8.3
same,activity coefficient,"328.15 K, Chromatography",140 ± 9.6
COCOC [dimethoxymethane] + O,activity coefficient,"273.35 K, Chromatography",10.8 ± 0.7
same,activity coefficient,"283.15 K, Chromatography",13.7 ± 0.9
same,activity coefficient,"293.15 K, Chromatography",15.6 ± 1.1
same,activity coefficient,"298.15 K, Chromatography",16.9 ± 1.2
same,activity coefficient,"303.15 K, Chromatography",18 ± 1.2
same,activity coefficient,"313.15 K, Chromatography",19.9 ± 1.4
same,activity coefficient,"323.15 K, Chromatography",22 ± 1.5
same,activity coefficient,"333.15 K, Chromatography",23.9 ± 1.6
C1CCOC1 [tetrahydrofuran] + O,activity coefficient,"273.35 K, classical headspace analysis",9.74 ± 0.58
same,activity coefficient,"278.15 K, classical headspace analysis",11.1 ± 0.7
same,activity coefficient,"288.15 K, Chromatography",14.3 ± 1
same,activity coefficient,"298.15 K, Chromatography",17.6 ± 1.2
same,activity coefficient,"308.15 K, Chromatography",20.6 ± 1.4
same,activity coefficient,"318.15 K, Chromatography",24 ± 1.6
same,activity coefficient,"328.15 K, non steady state GLC",26.8 and 28.1
C1CCOCC1 [tetrahydropyran] + O,activity coefficient,[2],39.6 ± 2.4
same,activity coefficient,"283.15 K, relative headspace analysis",44.9 ± 2.7
same,activity coefficient,"288.15 K, Chromatography",58 ± 4
same,activity coefficient,"298.15 K, Chromatography",70.5 ± 4.8
same,activity coefficient,"308.15 K, Chromatography",83.4 ± 5.7
same,activity coefficient,"318.15 K, Chromatography",96.2 ± 6.6
same,activity coefficient,"328.15 K, Chromatography",108 ± 7.4

# Source: the NIST ThermoML archive (doi:10.1016/j.fluid.2007.08.013)
